Results reported in patent US9980943B2, “Methods of treating muscular dystrophy” (BOARD OF REGENTS OF THE NEVADA SYSTEM OF HIGHER EDUCATION, …, priority 2013, dated 2018).

Legend:
Assay type in all cases: cell-based, mouse
[1] = system: α7 integrin (LacZ reporter in α7βgal+/− myoblasts); assay: Myoblast α7+/LacZ integrin FDG assay (Burkin assay in myoblasts, 96-well); settings: α7+/LacZ myoblasts, 96-well
[2] = system: β-galactosidase in CMV-LacZ C2C12 myotubes; assay: CMV-LacZ secondary screen in C2C12 myotubes (β-Gal stabilizing assay); settings: for CMV-LACZ in Myotubes, signal relative to DMSO: C2C12 CMV-LacZ myotubes, fold relative to DMSO; for CMV-LACZ in Myotubes (β-galactosidase activity relative to DMSO): CMV-LacZ C2C12 myotubes, 96-well format
Summary of the method: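 First, C2C12 myoblasts were transfected with a linearized CMV-LACZ vector and clonal lines selected by FDG β-gal assay. Then cells were exposed to compounds at 0.5, 1, 5, 10, 20 and 40 μM in 96-well format, two replicates each, and β-gal measured.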

[3] = system: α7 integrin (LacZ reporter in α7+/LacZ myotubes); assay: Myotube α7 integrin FDG assay (Burkin assay in myotubes, 96-well); settings: myotubes

SMILES | Burkin Assay in Myoblasts, value relative to DMSO ([1]; 0.5 uM) | Burkin Assay in Myoblasts, value relative to DMSO ([1]; 1 uM) | Burkin Assay in Myoblasts, value relative to DMSO ([1]; 5 uM) | Burkin Assay in Myoblasts, value relative to DMSO ([1]; 10 uM) | Burkin Assay in Myoblasts, value relative to DMSO ([1]; 20 uM) | Burkin Assay in Myoblasts, value relative to DMSO ([1]; 40 uM) | CMV-LACZ in Myotubes, signal relative to DMSO ([2]; 5 uM) | CMV-LACZ in Myotubes, signal relative to DMSO ([2]; 10 uM) | CMV-LACZ in Myotubes, signal relative to DMSO ([2]; 20 uM) | CMV-LACZ in Myotubes, signal relative to DMSO ([2]; 40 uM) | Burkin Assay in Myotubes (signal relative to DMSO) ([3]; 0.5 uM) | Burkin Assay in Myotubes (signal relative to DMSO) ([3]; 1 uM) | Burkin Assay in Myotubes (signal relative to DMSO) ([3]; 5 uM) | Burkin Assay in Myotubes (signal relative to DMSO) ([3]; 10 uM) | Burkin Assay in Myotubes (signal relative to DMSO) ([3]; 20 uM) | Burkin Assay in Myotubes (signal relative to DMSO) ([3]; 40 uM) | Burkin Assay in Myoblasts, signal relative to DMSO ([1]; 0.5 uM) | Burkin Assay in Myoblasts, signal relative to DMSO ([1]; 1 uM) | Burkin Assay in Myoblasts, signal relative to DMSO ([1]; 5 uM) | Burkin Assay in Myoblasts, signal relative to DMSO ([1]; 10 uM) | other results
COC(=O)c1ccc(C2C(C(=O)c3cc4ccccc4o3)=C(O)C(=O)N2CCN2CCOCC2)cc1 (centres unmarked) [MLS001146463-01] | 1.026 | 0.9781 | 0.9027 | 0.9293 | 0.7318 | 0.8061 | 1.074 | 0.9392 | 1.06 | 1.141 | 0.8827 | 0.8032 | 1.216 | 0.7514 | 0.8465 | 0.8424 |  |  |  |  | 
Cc1cccc(NC(=O)c2ccc(N3C(=O)C4CCCCC4C3=O)cc2)c1C (centres unmarked) [MLS001147727-01] |  |  |  |  |  |  | 1.12 | 0.9069 | 1.2365 | 1.1835 |  |  |  |  |  |  | 1.212 | 1.039 | 1.029 | 0.8892 | Burkin Assay in Myoblasts, signal relative to DMSO ([1]; 20 uM): 1.128; Burkin Assay in Myoblasts, signal relative to DMSO ([1]; 40 uM): 0.9044; Burkin Assay in Myotubes, α7 integrin LacZ reporter signal relative to DMSO ([3]; 0.5 uM): 0.9937; Burkin Assay in Myotubes, α7 integrin LacZ reporter signal relative to DMSO ([3]; 1 uM): 0.7877; Burkin Assay in Myotubes, α7 integrin LacZ reporter signal relative to DMSO ([3]; 5 uM): 1.101; Burkin Assay in Myotubes, α7 integrin LacZ reporter signal relative to DMSO ([3]; 10 uM): 0.9716; Burkin Assay in Myotubes, α7 integrin LacZ reporter signal relative to DMSO ([3]; 20 uM): 1.11; Burkin Assay in Myotubes, α7 integrin LacZ reporter signal relative to DMSO ([3]; 40 uM): 0.9652
COc1ccc(-c2csc3ncnc(N4CCN(c5ccccc5[N+](=O)[O-])CC4)c23)cc1 [MLS001149811-01] | 0.6497 | 0.8888 | 1.01 | 1.022 | 1 | 0.6172 |  |  |  |  | 0.957 | 0.9993 | 0.9434 | 0.9086 | 0.8456 | 0.5432 |  |  |  |  | CMV-LACZ in Myotubes (β-galactosidase activity relative to DMSO) ([2]; 5 uM): 0.9566; CMV-LACZ in Myotubes (β-galactosidase activity relative to DMSO) ([2]; 10 uM): 1.048; CMV-LACZ in Myotubes (β-galactosidase activity relative to DMSO) ([2]; 20 uM): 1.122; CMV-LACZ in Myotubes (β-galactosidase activity relative to DMSO) ([2]; 40 uM): 1.65
COc1ccc(S(=O)(=O)N2CCCCCC2)cc1C(=O)N1CCN(c2ccccc2O)CC1 [MLS001150751-01] |  |  |  |  |  |  | 0.9134 | 0.8336 | 0.992 | 0.889 |  |  |  |  |  |  | 1.114 | 1.059 | 0.9941 | 0.9573 | Burkin Assay in Myoblasts, signal relative to DMSO ([1]; 20 uM): 1.079; Burkin Assay in Myoblasts, signal relative to DMSO ([1]; 40 uM): 0.8454; Burkin Assay in Myotubes, α7 integrin LacZ reporter signal relative to DMSO ([3]; 0.5 uM): 1.0993; Burkin Assay in Myotubes, α7 integrin LacZ reporter signal relative to DMSO ([3]; 1 uM): 0.9504; Burkin Assay in Myotubes, α7 integrin LacZ reporter signal relative to DMSO ([3]; 5 uM): 1.254; Burkin Assay in Myotubes, α7 integrin LacZ reporter signal relative to DMSO ([3]; 10 uM): 1.023; Burkin Assay in Myotubes, α7 integrin LacZ reporter signal relative to DMSO ([3]; 20 uM): 1.0842; Burkin Assay in Myotubes, α7 integrin LacZ reporter signal relative to DMSO ([3]; 40 uM): 0.5343
O=C(COc1cc2oc(=O)c3c(c2cc1Cl)CCCC3)NCC1CCC(C(=O)O)CC1 (centres unmarked) [MLS001157804-01] | 0.879 | 0.9385 | 0.998 | 1.117 | 1.052 | 1.104 | 0.703 | 0.9842 | 1.05 | 1.07 | 1.045 | 1.013 | 1.031 | 1.083 | 1.069 | 1.188 |  |  |  |  | 
